Laboratory results reported in patent publication US8809280B2, “Therapeutic peptides” (Lytix Biopharma AS, priority 2009, dated 2014).
In brackets after ≈: the same amount, converted by molar mass. Read-outs that look alike come from different tables or passages of the source.

Tests used:
Format in all cases: cell-based
[1] = test system: Escherichia coli (ATTC 25922); experiment: microbe, parasite or virus in culture; details: for MIC E. coli: Example 1, di TFA salts, highest concentration tested 200 μg/ml
Procedure: (§1) The antimicrobial testing was conducted by TosLab A/S (Tromsø, Norway). Each compound was diluted to 1 mg/ml in water and tested in duplicates at 200, 100, 50, 35, 15, 10, 5, 2.5, 1, 0.5 μg/ml except 4n which was tested at 50, 35, 15, 10, 5, 2.5, 1, 0.5 μg/ml due to solubility problems. All tested compounds were di TFA salts.
(§2) The bacterial strains were grown in 2% Bacto Peptone water until exponential growth was achieved. […] A bacterial concentration of 2×10^6 cfu/ml was used. Both negative control (no peptide) and positive control (Gentamicin) was used for all bacterial strains. Growth or no growth was judged by the turbidity of the wells.
Escherichia coli (ATTC 25922)
(§3) Antimicrobial assays: 200 μg/ml
(§4) Suitable methodologies are described in Example 1.
(§5) Each compound was tested in duplicates at 200, 100, 50, 35, 15, 10, 5, 2.5, 1, 0.5 μg/ml. All tested compounds were di-trifluoroacetic acid salts.

[2] = test system: methicillin resistant Staphylococcus aureus (ATCC 33591); experiment: microbe, parasite or virus in culture
Procedure: as §1, §2
Methicillin resistant Staphylococcus aureus (ATCC 33591)
as §3, §4, §5

[3] = test system: methicillin resistant Staphylococcus epidermidis (ATCC 27626); experiment: microbe, parasite or virus in culture
Procedure: as §1, §2
Methicillin resistant Staphylococcus epidermidis (ATCC 27626)
as §3, §4, §5

[4] = test system: Staphylococcus aureus (ATTC 25923); experiment: microbe, parasite or virus in culture
Procedure: as §1, §2
Staphylococcus aureus (ATTC 25923)
as §3, §4, §5

[5] = test system: human red blood cells; experiment: cells
Procedure: The hemolytic testing against human erythrocytes was conducted by Lytix Biopharma A/S (Tromso, Norway). Each compound was tested from a concentration of 1 mg/ml and lower, except 4k and 4n which was only tested up to 0.5 mg/ml due to solubility problems. 8 mL of blood was collected from adult healthy male donors. The blood was divided equally and distributed in a commercial available EDTA containing test tube (BD vacutainer, 7.2 mg K2 EDTA) and in a 10 mL reaction vial containing 40 μL of a heparin solution (1000 U/mL in 0.9% sodium chloride). After 30 minutes the hematocrit of the EDTA treated blood was determined. The heparinized blood was centrifuged for 10 minutes at 1500 rpm and the supernatant removed. Subsequently the RBCs were washed with prewarmed PBS three times, and diluted to 10% hematocrit. The compounds dissolved in PBS (concentration 1 μg/mL to 1000 µg/mL) and the erythrocytes were incubated under agitation at 37° C. for one hour. A positive control with an end concentration of 0.1% TRITON X-100 (nonionic surfactant) and a negative control containing pure PBS buffer were included. The samples were centrifuged (4000 rpm) for 5 minutes and the absorption of the supernatant was measured at 405 nm. The values given in Table 1A correspond to 50% hemolysis.
The plasma fraction of heparinized human blood was first removed by centrifugation and three additional washing steps with 37° C. pre-warmed phosphate buffered saline (PBS). Subsequently, the human RBC were diluted to 10% hematocrit and the β^2,2-amino acid derivatives were dissolved in PBS providing concentrations ranging from 1-1000 μg/mL. The diluted RBC were added to the compound solutions to a final erythrocyte concentration of 1% v/v. PBS and TRITON X-100 (non-ionic surfactant), in a final concentration of 0.1% v/v, were included as negative and positive control. After 1 hour agitated incubation at 37° C. the samples were centrifuged at 4000 rpm for 5 min. Release of hemoglobin was determined by measuring the absorbance of the supernatant at 405 nm. Hemolytic activity was calculated as the ratio of treated sample with β^2,2-amino acid derivative and tenside treated sample according to the formula: […]

[6] = Escherichia coli, Example 2, values separated by / are repeat tests, read-out: Antimicrobial potency (MIC) E. coli
[7] = Staphylococcus aureus, ATCC 33591 / MRSA, Example 2, values separated by / are repeat tests, read-out: Antimicrobial potency (MIC) MRSA
[8] = Staphylococcus epidermidis, ATCC 27626 / MRSE, Example 2, values separated by / are repeat tests, read-out: Antimicrobial potency (MIC) MRSE
[9] = Staphylococcus aureus, Example 2, values separated by / are repeat tests, read-out: Antimicrobial potency (MIC) S. aureus
[10] = Example 1, 50% hemolysis of human red blood cells, highest concentration tested 1000 μg/ml
[11] = ATTC 25922, read-out: MIC E. coli
[12] = ATCC 33591, read-out: MIC MTRSA
[13] = ATTC 25923, read-out: MIC S. aureus
[14] = Homo sapiens, Erythrocyte, Example 2, highest concentration tested 1000 μg/ml, * low solubility in the test media, read-out: Toxicity RBC (EC50)

Row | Structure (SMILES) | MIC [1, 6] [mg/L] | MIC [2, 7] [mg/L] | MIC [3, 8] [mg/L] | MIC [4, 9] [mg/L] | EC50 RBC [5, 10] | MBC E. coli ([1]; ATTC 25922) [µM] | MIC E. coli ([1]; ATTC 25922) | MBC MRSA ([2]; ATCC 33591) [µM] | MBC MRSE ([3]; ATCC 27626) [µM] | MIC ([3]; ATCC 27626, read-out: MIC MRSE) [µM] | MBC S. aureus ([4]; ATTC 25923) [µM] | MIC [4, 13] [µM] | MIC MRSA ([2]; ATCC 33591) [µM] | EC50 [5, 14] [mg/L] | other results
1 | CCCC(CN)(CCC)C(=O)NCCN [Compound 1, N-(2-aminoethyl)-2-(aminomethyl)-2-propyl-pentanamide] | > 200 | > 200 | > 200 | > 200 |  |  |  |  |  |  |  |  |  |  | 
2 | CN(C)CCN1CCN(C(=O)C(CN)(CCCc2ccccc2)CCCc2ccccc2)CC1 [Compound 4a] |  |  |  |  | — (The notation “—”denotes no detectable activity (MIC or EC50) within the concentration range tested.) | >360 | — (The notation “—”denotes no detectable activity (MIC or EC50) within the concentration range tested.) | >360 | >360 | 72 | >360 | 289 |  |  | EC50 RBC ([5]; Example 4, hemolytic activity, human red blood cells, highest concentration tested 1000 μg/ml): — (The notation “—” denotes no detectable activity (MIC or EC50) within the concentration range tested.); MIC [1, 11]: 289 µM; MIC [2, 12]: 72 µM; MIC MRSA ([2]; Example 1, ATCC 33591, di TFA salts, highest concentration tested 200 μg/ml): — (The notation “—”denotes no detectable activity (MIC or EC50) within the concentration range tested.); MIC MRSE ([3]; Example 1, ATCC 27626, di TFA salts, highest concentration tested 200 μg/ml): — (The notation “—”denotes no detectable activity (MIC or EC50) within the concentration range tested.); MIC S. aureus ([4]; Example 1, ATTC 25923, di TFA salts, highest concentration tested 200 μg/ml): — (The notation “—”denotes no detectable activity (MIC or EC50) within the concentration range tested.)
3 | CN(C)CCN1CCN(C(=O)C(CN)(Cc2ccc(C(F)(F)F)cc2)Cc2ccc(C(F)(F)F)cc2)CC1 [Compound 4b] |  |  |  |  | — (The notation “—”denotes no detectable activity (MIC or EC50) within the concentration range tested.) | >301 | — (The notation “—”denotes no detectable activity (MIC or EC50) within the concentration range tested.) | 150 (≈ 81.7 µg/mL) | 75 (≈ 40.8 µg/mL) |  | 301 (≈ 164 µg/mL) |  | 150 (≈ 81.7 µg/mL) |  | EC50 ([5]; red cells of human): 1120 µM; Therapeutic index E. coli ([1]; ATTC 25922): 8.6; MIC [1, 11]: 129 µM; Therapeutic index MRSA ([2]; ATCC 33591): 172; MIC [2, 12]: 6.5 µM; Therapeutic index MRSE ([3]; ATCC 27626): 17; Therapeutic index S. aureus ([4]; ATTC 25923): 25
4 | N=C(N)NCCC[C@H](NC(=O)C(CN)(CCc1ccccc1)CCc1ccccc1)C(N)=O [Compound 4e] |  |  |  |  | — (The notation “—”denotes no detectable activity (MIC or EC50) within the concentration range tested.) | >294 | — (The notation “—”denotes no detectable activity (MIC or EC50) within the concentration range tested.) | 147 (≈ 66.5 µg/mL) | 74 (≈ 33.5 µg/mL) | 74 | 147 (≈ 66.5 µg/mL) | 147 | 147 (≈ 66.5 µg/mL) |  | 
5 | N=C(N)NCCC[C@H](NC(=O)C(CN)(CCCc1ccccc1)CCCc1ccccc1)C(N)=O [Compound 4f] |  |  |  |  | — (The notation “—”denotes no detectable activity (MIC or EC50) within the concentration range tested.) | >282 | — (The notation “—”denotes no detectable activity (MIC or EC50) within the concentration range tested.) | 49 (≈ 23.6 µg/mL) | 49 (≈ 23.6 µg/mL) | 35 | 49 (≈ 23.6 µg/mL) | 49 | 49 (≈ 23.6 µg/mL) |  | 
6 | CC(C)c1ccc(CC(CN)(Cc2ccc(C(C)C)cc2)C(=O)N[C@@H](CCCNC(=N)N)C(N)=O)cc1 [Compound 4j] |  |  |  |  |  | 136 (≈ 69.2 µg/mL) |  | 6.8 (≈ 3.46 µg/mL) | 6.8 (≈ 3.46 µg/mL) | 6.8 | 6.8 (≈ 3.46 µg/mL) | 10.2 | 6.8 (≈ 3.46 µg/mL) |  | EC50 ([5]; red cells of human): 386 µM; MIC [1, 11]: 136 µM
7 | Cc1cc(C)cc(CC(CN)(Cc2cc(C)cc(C)c2)C(=O)N[C@@H](CCCNC(=N)N)C(N)=O)c1 [Compound 4l] |  |  |  |  | — (The notation “—”denotes no detectable activity (MIC or EC50) within the concentration range tested.) | >282 | — (The notation “—”denotes no detectable activity (MIC or EC50) within the concentration range tested.) | 49 (≈ 23.6 µg/mL) | 21 (≈ 10.1 µg/mL) | 35 | 49 (≈ 23.6 µg/mL) | 60 | 49 (≈ 23.6 µg/mL) |  | 
8 | CC(C)(C)c1cc(CC(CN)(Cc2cc(C(C)(C)C)cc(C(C)(C)C)c2)C(=O)N[C@@H](CCCNC(=N)N)C(N)=O)cc(C(C)(C)C)c1 [Compound 4n] |  |  |  |  |  | 5.7 (≈ 3.7 µg/mL) |  | 4.6 (≈ 2.99 µg/mL) | 3.4 (≈ 2.21 µg/mL) | 10.1 | 4.6 (≈ 2.99 µg/mL) | 2.9 | 2.1 (≈ 1.36 µg/mL) |  | EC50 ([5]; red cells of human): 99 µM; MIC [1, 11]: 5.7 µM
9 | CN(C)CCNC(=O)C(CN)(Cc1ccccc1)Cc1ccccc1 [Compound 23, 3-amino-2,2-dibenzyl-N-(2-(dimethylamino)-ethyl)-propanamide] | > 100 | > 100 | > 100 | > 100 |  |  |  |  |  |  |  |  |  | > 1000 | 
10 | CN(C)CCNC(=O)C(CN)(Cc1ccc(C(C)(C)C)cc1)Cc1ccc(C(C)(C)C)cc1 [Compound 24, 3-amino-2,2-bis(4-tert-butylbenzyl)-N-(2-(dimethylamino)-ethyl)-propanamide] | 5 | 5 | 2.5 | 5 |  |  |  |  |  |  |  |  |  | 185 | 
11 | Cc1cc(C)cc(CC(CN)(Cc2cc(C)cc(C)c2)C(=O)NCCN(C)C)c1 [Compound 25, 3-amino-N-(2-(dimethylamino)-ethyl)-2,2-bis(3,5-dimethylbenzyl)-propanamide] | 50 | 50 | 10 | 100 |  |  |  |  |  |  |  |  |  | 820 | 
12 | CN(C)CCNC(=O)C(CN)(CCCc1ccccc1)CCCc1ccccc1 [Compound 26, 2-(aminomethyl)-N-(2-(dimethyl-amino)ethyl)-5-phenyl-2-(3-phenyl-propyl)-pentanamide] | 100 | 35 | 35 | 35 |  |  |  |  |  |  |  |  |  | 316 | 
13 | CN(C)CCNC(=O)C(CN)(Cc1ccc2ccccc2c1)Cc1ccc2ccccc2c1 [Compound 27, 3-amino-N-(2-(dimethylamino)ethyl)-2,2-bis(naphthalen-2-ylmethyl)propanamide] | 15 | 5 | 5 | 5 |  |  |  |  |  |  |  |  |  | 145 | 
14 | Cc1cc(C)cc(CC(CN)(Cc2cc(C)cc(C)c2)C(=O)N2CCN(CCN(C)C)CC2)c1 [Compound 35, 3-amino-1-(4-(2-(dimethylamino)ethyl)piperazin-1-yl)-2,2-bis(3,5-dimethylbenzyl)propan-1-one] | 100 | 50 | 35 | 50 |  |  |  |  |  |  |  |  |  |  | 
